The text below walks through data of PubChem BioAssay (NCI).

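Values below derive from 48-hour exposures of cells grown in 96-well plates, with endpoints linearly interpolated between the two concentrations bracketing the appropriate inhibition level. TGI: concentration producing complete growth inhibition.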 *1 amine or outer side, *2 acyl side, *3 side chain or, on linkers, in order; H or OH if unused. Where a SMILES comes first, the peptide text is derived from it. [ ]: non-standard residue; d: D form. X32 = C[C@H](N[*:1])C(=O)C(C)(C)C(=O)[*:2]; Hmpa(2S,3S) = CC[C@H](C)[C@H](O)C(=O)O; NMeY = CN[C@@H](Cc1ccc(O)cc1)C(=O)O; NMeL = CN[C@@H](CC(C)C)C(=O)O; NMeV = CN[C@H](C(=O)O)C(C)C; βAla = NCCC(=O)O

Test systems include ACHN renal; CCRF-CEM leukemia; DU-145 prostate; EKVX NSCLC; HL-60(TB) leukemia; HOP-62 NSCLC; HT29 colon; KM12 colon; M14 melanoma; MDA-N; NCI-H23 lung; RPMI-8226 leukemia; SF-268 CNS; SW-620 colon; UO-31 renal; OVCAR-8 ovarian; SF-295 CNS; SNB-75 CNS.
Common to all, as to test: growth of human tumour cells (NCI), 48 h

As for `CCOC(=O)c1ccc(NCC#CCN2CCCCC2)cc1`, the TGI in the assay on ACHN renal, in the assay on CCRF-CEM leukemia, in the assay with DU-145 prostate, with EKVX NSCLC, with HL-60(TB) leukemia and in the assay on HOP-62 NSCLC was above 100 µM each time. Also, the TGI with HT29 colon, in the assay with KM12 colon, in the assay on M14 melanoma, in the assay on MDA-N, with NCI-H23 lung and in the assay on RPMI-8226 leukemia was above 100 µM throughout. Besides, the TGI in the assay with SF-268 CNS, in the assay with SW-620 colon and with UO-31 renal was above 100 µM in each case.
Consider `CC(=O)O[C@H]1[C@H](OC(=O)CC(C)(O)CC(=O)O)C[C@]2(C)C3=C(CCC2C1(C)C)[C@]1(C)CC[C@H]([C@H]2CC[C@H](C(C)(C)O)OC2O)[C@@]1(C)[C@@H](O)C3` (some centres undefined), for which the TGI in the assay on ACHN renal is 31.2 µM; in the assay on CCRF-CEM leukemia it was 49.7 µM; with DU-145 prostate, 64.8 µM; with EKVX NSCLC, 38.9 µM; in the assay with HL-60(TB) leukemia, 36.5 µM; with HOP-62 NSCLC it was 32.7 µM. In addition, the TGI in the assay on HT29 colon was found to be 30.2 µM; in the assay with KM12 colon it was 38.6 µM; in the assay on M14 melanoma, 33.4 µM; in the assay with MDA-N it was 34.3 µM; in the assay with NCI-H23 lung it was 32.2 µM; with OVCAR-8 ovarian, 35.4 µM. In addition, the TGI was 43.8 µM in the assay on RPMI-8226 leukemia, 33.9 µM in the assay on SF-295 CNS, 27.2 µM in the assay with SW-620 colon and 25.8 µM in the assay with UO-31 renal.
With `N#Cc1c(N)nc(Sc2ccccc2N)c(C#N)c1-c1ccc(Cl)cc1`, the TGI is 39.5 µM in the assay with ACHN renal; above 100 µM in the assay on CCRF-CEM leukemia; above 58.2 µM with DU-145 prostate; above 56.1 µM in the assay on EKVX NSCLC; above 100 µM in the assay with HL-60(TB) leukemia; 17.2 µM in the assay on HOP-62 NSCLC. The TGI in the assay on HT29 colon is above 100 µM; with KM12 colon, 35.9 µM; in the assay on M14 melanoma, 38.5 µM; with MDA-N, 40.2 µM; in the assay on NCI-H23 lung, above 63 µM; in the assay on OVCAR-8 ovarian, 41 µM. Besides, the TGI in the assay on RPMI-8226 leukemia was 28.8 µM; in the assay with SF-268 CNS it was 23.8 µM; in the assay on SF-295 CNS, 25.9 µM; in the assay with SW-620 colon, above 100 µM; with UO-31 renal, 9.64 µM.
`Cn1c2ccccc2c(=O)c2cccc(C(=O)NC(CCC(N)=O)C(=O)O)c21` (centres undefined): the TGI was above 100 µM in the assay on ACHN renal; above 100 µM in the assay with DU-145 prostate; above 100 µM in the assay on EKVX NSCLC; 0.678 µM in the assay on HL-60(TB) leukemia; above 100 µM in the assay with HOP-62 NSCLC; above 100 µM in the assay with HT29 colon. Moreover, the TGI in the assay with KM12 colon, with M14 melanoma, with MDA-N, in the assay with NCI-H23 lung, in the assay with OVCAR-8 ovarian and with RPMI-8226 leukemia was above 100 µM throughout. Also, the TGI in the assay on SF-268 CNS, in the assay on SF-295 CNS, in the assay on SNB-75 CNS and in the assay on SW-620 colon was above 100 µM in each case.
For the compound `O=C(O)CN1C(=O)C(Cc2ccc(O)cc2)N=C(c2cccc(O)c2)c2ccccc21` (centres undefined), the TGI in the assay on ACHN renal, in the assay with DU-145 prostate, with EKVX NSCLC, with HL-60(TB) leukemia, in the assay with HOP-62 NSCLC and with HT29 colon was above 100 µM throughout. Also, the TGI in the assay on KM12 colon was above 100 µM; with M14 melanoma, above 100 µM; in the assay on MDA-N, 26 µM; in the assay with OVCAR-8 ovarian, above 100 µM; in the assay with RPMI-8226 leukemia, above 100 µM; with SF-268 CNS, above 100 µM. Also, the TGI in the assay on SF-295 CNS, in the assay with SNB-75 CNS, in the assay on SW-620 colon and with UO-31 renal was above 100 µM throughout.
As to `CO/N=C(\C)CCC#Cc1ccccc1C(=O)OC`, the TGI with ACHN renal, in the assay on CCRF-CEM leukemia, in the assay with DU-145 prostate, with EKVX NSCLC, in the assay on HL-60(TB) leukemia and with HOP-62 NSCLC was above 10 µM in each case. In addition, the TGI with HT29 colon, in the assay on KM12 colon, in the assay on M14 melanoma, in the assay with MDA-N, in the assay with NCI-H23 lung and with OVCAR-8 ovarian was above 10 µM each time. Besides, the TGI in the assay on RPMI-8226 leukemia, in the assay with SF-268 CNS, in the assay on SF-295 CNS, with SW-620 colon and with UO-31 renal was above 10 µM each time.
As to `COc1ccc2c(c1)CCc1c-2n(CCN2CCCCC2)c2ccc(OC)cc12`, the TGI in the assay on ACHN renal, in the assay with CCRF-CEM leukemia, in the assay on DU-145 prostate, in the assay on EKVX NSCLC, in the assay with HOP-62 NSCLC and in the assay with HT29 colon was above 100 µM throughout. In addition, the TGI in the assay with M14 melanoma, in the assay on MDA-N, in the assay on NCI-H23 lung, in the assay with OVCAR-8 ovarian, with RPMI-8226 leukemia and in the assay on SF-268 CNS was above 100 µM in each case. Besides, the TGI in the assay on SF-295 CNS, with SNB-75 CNS, in the assay on SW-620 colon and in the assay with UO-31 renal was above 100 µM throughout.
Turning to `CC[C@H](C)[C@@H]1OC(=O)CCNC(=O)[C@@H](C)NC(=O)C(C)(C)C(=O)[C@H](C)NC(=O)[C@H](Cc2ccc(OC)cc2)N(C)C(=O)[C@H](C(C)C)N(C)C(=O)CNC(=O)[C@H](CC(C)C)N(C)C(=O)CNC1=O` (cyclo(G[NMeL]G[NMeV][NMeY](Me)[X32][dA][βAla][Hmpa(2S,3S)])), the TGI in the assay on ACHN renal was above 38 µM; in the assay on CCRF-CEM leukemia, 2.2 µM; with DU-145 prostate, above 39.2 µM; in the assay with EKVX NSCLC it was 22.7 µM; in the assay with HOP-62 NSCLC, 10.6 µM; in the assay with HT29 colon, 10.2 µM. Also, the TGI with M14 melanoma is 10.2 µM; in the assay with MDA-N it was above 31.8 µM; in the assay with NCI-H23 lung it was above 50 µM; in the assay with OVCAR-8 ovarian, 23.7 µM; in the assay on RPMI-8226 leukemia it was 11.1 µM; in the assay on SF-268 CNS it was 6.54 µM. The TGI in the assay on SF-295 CNS was 24.3 µM; with SNB-75 CNS, 3.52 µM; in the assay with SW-620 colon, above 50 µM; in the assay on UO-31 renal, 16 µM.
